Read-outs that look alike come from different tables or passages of the source.
How the values were obtained:
[1] = Plasma protein binding (rapid equilibrium dialysis); format: in vitro ADME, human; conditions: human, plasma, 4-h incubation, 37° C.
Description: (§4) Spiked plasma samples were prepared by adding 12 μL of each working solution into 1.2 mL of blank plasma to a final concentration of 2 μg/mL. Plasma protein binding incubations were performed in triplicate by adding 500 μL of PBS into each white chamber and 300 μL of spiked plasma into each red chamber of the RED device. The device was covered with a sealing tape and placed on an orbital shaker at a shaking speed of 100 rpm at 37° C. in 5% CO2. After a 4-h incubation, a 40 μL plasma sample was transferred from each red chamber to the wells of a 96-well plate containing 160 μL of PBS. A 160 μL PBS aliquot from each white chamber was transferred to the wells of the same plate containing 40 μL of blank plasma. After matching the matrix for all samples, 400 μL aliquots of stop solution were added to each well of the 96-well sample plate. […] A 100 μL aliquot of supernatant from each well was transferred to a new 96-well sample plate and further mixed with 100 μL of Milli-Q (ultrapure) water before analysis by liquid chromatography—tandem mass spectrometry (LC-MS/MS).

plasma proteins = assay: as above; format: in vitro ADME, human; conditions: 2 μg/mL, 4-h incubation, 37° C.
Description: as §4

[2] = system: Caco2 intestinal cell monolayer; assay: in vitro; conditions: human, Caco-2, 90 min
Description: (§1) Caco2 cells (2×10^4/well) were seeded onto apical chambers of a 24-multiwell insert plate and incubated at 37° C. in 5% CO2. After 21 d, the transepithelial electrical resistance (TEER) in ohms was read for each insert well as a quality control for monolayer integrity (>900 ohms or 300 ohms cm^2). The cell monolayers were incubated with 400 μL transport buffer on the apical (A) and 1.2 mL on the basolateral (B) sides for 30 min. After preincubation, dosing solution was added to the apical (400 μL, A-to-B, donor) or basolateral sides (1.2 mL, B-to-A, donor) or receiving buffer to the apical (400 μL, B-to-A, receiver) or basolateral sides (1.2 mL, A-to-B, receiver) for 90 min at 37° C. in 5% CO2. […] Papp·A>B (nm/s) was calculated with Equation 1.
(§2) Papp Efflux Ratio (ER) was calculated with Equation 2.
(§3) Propranolol (high permeability marker, non-P-gp substate) and digoxin (P-gp substrate) were used as controls.

in vitro = conditions: human
Description: as §1, §2, §3

Nav1.5 = Nav1.5 (Homo sapiens, UniProt Q14524); assay: Ion channel screening, Nav1.5; format: cell-based; conditions: n=3, pulse 26, read-out: inhibition of Nav1.5 currents
Description: The parameters measured were the maximum inward current evoked on stepping to −20 mV from the 1st and 26th pulse. Human Kv4.3/KChIP2 currents were evoked from a holding potential of −80 mV by a series of four 500 msec pulses to 0 mV using a 1000 msec interval between pulses. The parameter measured was the amplitude of the outward current 50 msec after the onset of the 4th voltage step to 0 mV. Human Cav1.2 currents were evoked by 2 pulses to −10 mV from a holding potential of −100 mV. The parameters measured were the maximum inward currents evoked on stepping to −10 mV from the holding potential of −100 mV for the 1st and 2nd pulse. Human Kv1.5 currents were evoked by a single pulse from a holding potential of −80 mV to a potential of 0 mV for 4 sec before returning to −80 mV. The parameters measured were the maximum amplitude of outward currents evoked at the beginning of the voltage pulse and at the end of the voltage step from −80 mV to 0 mV. Human KCNQ1/minK currents were evoked by a single pulse delivered from a holding potential of −80 mV to +60 mV for 4 sec before returning to −80 mV. The parameter measured was the maximum outward current evoked on stepping to +60 mV from the holding potential of −80 mV. hERG currents were evoked by a three-pulse protocol where voltage was first stepped to +40 mV for two sec from a holding potential of −80 mV to inactivate hERG channels. […]

hERG [3] = target: T1, hERG (Homo sapiens, UniProt Q12809); assay: Patch clamp recording of hERG currents in transfected HEK293 cells; format: cell-based
T1 construct: expressed in transfected cells; host or cells: HEK293 (ATCC), polyclonal, stably transfected, G418 selection
Description: Caco-2 and HEK293 cells were obtained from the American Type Culture Collection (ATCC, Manasass, Va.) and grown in culture according to the supplier's specifications. In some experiments, HEK293 cells were stably transfected with hERG cDNA and polyclonal cultures were maintained in the presence of 250 μg/ml geneticin (G418).
For electrophysiology recording, a micropipette was pulled from borosilicate glass with the pipette tip resistance between 3˜5 MΩ. For each experiment, polyclonal HEK293 cells stably transfected with hERG cDNA and maintained in 250 μg/ml Geneticin (G418) were plated on 35 mm dishes on the microscope stage and a commercial patch clamp amplifier was used for the whole cell recordings. The tail currents were evoked at 22° C. once every 30 sec by a 3 sec-50 mV repolarizing pulse following a 2 sec+50 mV depolarizing pulse with a hold voltage of −80 mV. A 50 msec depolarized pulse to −50 mV at the beginning of the voltage protocol served as a baseline for calculating the amplitude of the peak tail current. The hERG currents were allowed to stabilize over a 3 min period in the presence of vehicle alone prior to Gamitrinib application. The cells were kept in the test solution until the peak tail current was stable (<5% change) for ˜5 sweeps or for a maximum of 6 min, whichever came first. Peak tail amplitudes were plotted as a function of the sweep number. Five peak tail current measurements at the steady state before Gamitrinib application were averaged and used as the control current amplitude. Four or five peak tail current measurements at the steady state after Gamitrinib application were averaged and used as the remaining current amplitude after inhibition by the test article. The % inhibition of the test article was calculated from the following equation: […]

Human HCN4 = Human HCN4 (Homo sapiens, UniProt Q9Y3Q4); assay: Ion channel screening, HCN4; format: cell-based; conditions: n=16, read-out: inhibition of HCN4 currents
[4] = Stability and particle size distribution of Gamitrinib Injectable Suspension (GIS); format: physicochemical
Description: A sequential three-step process was utilized to prepare Good Laboratory Practice (GLP) working solutions of Gamitrinib (5 mg/mL) for preclinical studies. The formulation workflow is as follows: Step 1—Solubilization of Gamitrinib powder in DMSO (2.5%); […] Step 3—Dilution in 5% dextrose (87.5%). […] For Good Manufacturing Practice (GMP) studies, a Gamitrinib Injectable Suspension (GIS) was prepared by microfluidization. Gamitrinib stock solutions prepared as above were passed through a microfluidizer (Dyhydromatics, Acton, Mass.) with rate of flow set at low, medium, and high. At the end of GIS processing, microfluidization was continued at reduced pressure (2000 psi) for 1-2 min. […] Gamitrinib is formulated using a three-step dilution process described in the Materials and Methods section. A sterile, Gamitrinib Injectable Suspension (GIS) is prepared for clinical use using microfluidization with the schematic flowchart shown in FIG. 5B.

tumor = conditions: cited from earlier work
CYP2A6 = CYP2A6 (Homo sapiens, UniProt P11509); assay: CYP inhibition in liver microsomes, CYP2A6; format: in vitro ADME; conditions: human liver microsomes 0.1 mg/mL
Description: After addition of prototypical CYP substrates in 250 μL, samples were incubated for 10 min (CYP1A2, CYP2B6, CYP2C9, and CYP3A4) or 20 min (CYP2C8) at 37° C. in 5% CO2. […] Samples were analyzed for metabolite formation by LC-MS/MS. The results were expressed using the peak area ratio of analyte to internal standard, based on the calibration curves.
where Range=fitted uninhibited value, s=slope factor, x=inhibitor concentration, y=% control activity.

hERG [5] = target: T1, hERG; assay: Ion channel screening, hERG; format: cell-based; conditions: n=16, read-out: inhibition of hERG currents (ion channel screening)
Description: The parameter measured was the maximum outward current evoked on stepping to +60 mV from the holding potential of −80 mV. hERG currents were evoked by a three-pulse protocol where voltage was first stepped to +40 mV for two sec from a holding potential of −80 mV to inactivate hERG channels. The voltage is then stepped back to −50 mV for two sec to evoke a tail current prior to returning to the holding potential for 1 sec. The parameter measured was the amplitude of the 3rd pulse tail current upon stepping back to −50 mV after the step to +40 mV. Human HCN4 currents were evoked by a single pulse from a holding potential of −30 mV to a potential of −110 mV for 4 sec prior to returning to −30 mV. The parameter measured was the maximum inward current evoked upon stepping to −110 mV from the holding potential of −30 mV. Human Kir2.1 currents were evoked from a holding potential of −20 mV by a series of 10 500 msec pulses to −120 mV using a 200 msec interval between pulses. The parameters measured were the amplitudes of the instantaneous inward currents evoked on stepping to −120 mV for the 1st pulse and the maximum inward current at the end of the 10th hyperpolarizing pulse. For all experiments, data were filtered for seal quality, seal drop, and current amplitude.

[6] = system: colon adenocarcinoma cell lines; conditions: colon adenocarcinoma lines of NCI 60 screen; read-out: IC50 anticancer activity; cited from earlier work

T1 sequence (Q12809 whole entry): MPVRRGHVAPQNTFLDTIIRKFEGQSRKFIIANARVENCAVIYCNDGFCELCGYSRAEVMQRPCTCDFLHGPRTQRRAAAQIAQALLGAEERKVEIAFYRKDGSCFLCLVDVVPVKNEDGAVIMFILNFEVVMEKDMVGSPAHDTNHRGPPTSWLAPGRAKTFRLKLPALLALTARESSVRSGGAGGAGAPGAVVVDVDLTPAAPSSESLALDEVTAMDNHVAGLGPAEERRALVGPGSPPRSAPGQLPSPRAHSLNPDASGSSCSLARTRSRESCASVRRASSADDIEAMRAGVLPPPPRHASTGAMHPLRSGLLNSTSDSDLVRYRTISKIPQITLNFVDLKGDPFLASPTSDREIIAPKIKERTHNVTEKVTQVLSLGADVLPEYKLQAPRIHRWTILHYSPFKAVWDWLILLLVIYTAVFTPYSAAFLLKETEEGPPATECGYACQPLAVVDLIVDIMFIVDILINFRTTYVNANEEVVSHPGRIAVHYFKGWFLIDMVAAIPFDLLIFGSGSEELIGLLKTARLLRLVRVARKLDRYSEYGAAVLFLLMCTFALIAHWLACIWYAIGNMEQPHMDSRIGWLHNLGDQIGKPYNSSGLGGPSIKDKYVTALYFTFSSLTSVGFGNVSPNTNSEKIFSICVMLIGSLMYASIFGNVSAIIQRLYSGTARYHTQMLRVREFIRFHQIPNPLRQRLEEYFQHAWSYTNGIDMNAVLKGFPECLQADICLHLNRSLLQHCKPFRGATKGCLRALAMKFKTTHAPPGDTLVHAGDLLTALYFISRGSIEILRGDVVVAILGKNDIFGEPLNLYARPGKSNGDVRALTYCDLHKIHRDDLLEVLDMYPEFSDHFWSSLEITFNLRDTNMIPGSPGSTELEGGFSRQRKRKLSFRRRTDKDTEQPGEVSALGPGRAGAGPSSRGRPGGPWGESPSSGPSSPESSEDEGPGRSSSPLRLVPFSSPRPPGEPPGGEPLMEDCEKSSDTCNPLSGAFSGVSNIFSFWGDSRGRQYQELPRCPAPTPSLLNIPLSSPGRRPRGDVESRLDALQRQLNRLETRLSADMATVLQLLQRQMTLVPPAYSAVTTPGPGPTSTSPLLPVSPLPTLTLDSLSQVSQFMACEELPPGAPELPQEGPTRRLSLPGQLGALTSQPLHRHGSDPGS
Chain of CYP2A6 (P11509 whole entry): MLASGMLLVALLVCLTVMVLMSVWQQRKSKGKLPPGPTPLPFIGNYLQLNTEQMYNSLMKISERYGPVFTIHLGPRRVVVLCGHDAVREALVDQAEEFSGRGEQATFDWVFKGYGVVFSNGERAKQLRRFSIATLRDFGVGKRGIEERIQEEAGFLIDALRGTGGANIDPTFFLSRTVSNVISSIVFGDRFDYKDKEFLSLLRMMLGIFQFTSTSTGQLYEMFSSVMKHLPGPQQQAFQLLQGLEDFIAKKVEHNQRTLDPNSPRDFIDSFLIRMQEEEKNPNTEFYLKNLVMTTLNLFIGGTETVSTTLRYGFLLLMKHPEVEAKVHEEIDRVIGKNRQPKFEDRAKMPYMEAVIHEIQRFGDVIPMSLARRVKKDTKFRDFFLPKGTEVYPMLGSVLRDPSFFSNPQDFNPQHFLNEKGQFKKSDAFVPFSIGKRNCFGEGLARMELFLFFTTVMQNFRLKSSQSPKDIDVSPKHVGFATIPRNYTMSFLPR
Chain of Human HCN4 (Q9Y3Q4 whole entry): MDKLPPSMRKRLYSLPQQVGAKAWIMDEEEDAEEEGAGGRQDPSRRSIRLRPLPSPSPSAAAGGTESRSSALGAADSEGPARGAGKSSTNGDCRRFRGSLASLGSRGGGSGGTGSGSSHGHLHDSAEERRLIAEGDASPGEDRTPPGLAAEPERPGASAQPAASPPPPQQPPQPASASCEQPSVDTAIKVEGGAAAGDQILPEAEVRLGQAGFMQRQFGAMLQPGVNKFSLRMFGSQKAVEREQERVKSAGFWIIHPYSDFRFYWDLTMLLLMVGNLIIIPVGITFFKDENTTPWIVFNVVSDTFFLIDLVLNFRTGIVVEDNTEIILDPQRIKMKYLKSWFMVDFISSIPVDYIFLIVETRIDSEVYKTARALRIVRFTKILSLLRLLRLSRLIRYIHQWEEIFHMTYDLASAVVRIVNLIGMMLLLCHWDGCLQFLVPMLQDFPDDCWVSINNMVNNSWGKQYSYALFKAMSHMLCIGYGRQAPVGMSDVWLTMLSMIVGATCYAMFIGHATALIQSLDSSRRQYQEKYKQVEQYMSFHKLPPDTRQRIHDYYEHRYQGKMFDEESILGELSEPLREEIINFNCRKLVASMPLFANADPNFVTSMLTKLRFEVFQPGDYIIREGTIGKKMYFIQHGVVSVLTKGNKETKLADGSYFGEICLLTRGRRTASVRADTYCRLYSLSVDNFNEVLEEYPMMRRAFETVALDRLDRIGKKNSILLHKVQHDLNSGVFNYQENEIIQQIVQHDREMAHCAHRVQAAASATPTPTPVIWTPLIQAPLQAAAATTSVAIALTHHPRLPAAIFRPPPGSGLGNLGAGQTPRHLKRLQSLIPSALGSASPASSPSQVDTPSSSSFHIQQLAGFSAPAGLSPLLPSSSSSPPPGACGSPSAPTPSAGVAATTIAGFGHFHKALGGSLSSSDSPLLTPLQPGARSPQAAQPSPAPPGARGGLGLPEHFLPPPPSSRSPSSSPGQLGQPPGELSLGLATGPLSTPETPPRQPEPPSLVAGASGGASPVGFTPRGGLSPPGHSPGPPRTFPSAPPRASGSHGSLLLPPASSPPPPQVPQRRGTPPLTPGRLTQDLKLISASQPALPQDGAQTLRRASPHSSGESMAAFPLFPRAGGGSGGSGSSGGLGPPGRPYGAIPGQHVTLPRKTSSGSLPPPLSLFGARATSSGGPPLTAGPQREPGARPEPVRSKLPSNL
Chain of Nav1.5 (Q14524 whole entry): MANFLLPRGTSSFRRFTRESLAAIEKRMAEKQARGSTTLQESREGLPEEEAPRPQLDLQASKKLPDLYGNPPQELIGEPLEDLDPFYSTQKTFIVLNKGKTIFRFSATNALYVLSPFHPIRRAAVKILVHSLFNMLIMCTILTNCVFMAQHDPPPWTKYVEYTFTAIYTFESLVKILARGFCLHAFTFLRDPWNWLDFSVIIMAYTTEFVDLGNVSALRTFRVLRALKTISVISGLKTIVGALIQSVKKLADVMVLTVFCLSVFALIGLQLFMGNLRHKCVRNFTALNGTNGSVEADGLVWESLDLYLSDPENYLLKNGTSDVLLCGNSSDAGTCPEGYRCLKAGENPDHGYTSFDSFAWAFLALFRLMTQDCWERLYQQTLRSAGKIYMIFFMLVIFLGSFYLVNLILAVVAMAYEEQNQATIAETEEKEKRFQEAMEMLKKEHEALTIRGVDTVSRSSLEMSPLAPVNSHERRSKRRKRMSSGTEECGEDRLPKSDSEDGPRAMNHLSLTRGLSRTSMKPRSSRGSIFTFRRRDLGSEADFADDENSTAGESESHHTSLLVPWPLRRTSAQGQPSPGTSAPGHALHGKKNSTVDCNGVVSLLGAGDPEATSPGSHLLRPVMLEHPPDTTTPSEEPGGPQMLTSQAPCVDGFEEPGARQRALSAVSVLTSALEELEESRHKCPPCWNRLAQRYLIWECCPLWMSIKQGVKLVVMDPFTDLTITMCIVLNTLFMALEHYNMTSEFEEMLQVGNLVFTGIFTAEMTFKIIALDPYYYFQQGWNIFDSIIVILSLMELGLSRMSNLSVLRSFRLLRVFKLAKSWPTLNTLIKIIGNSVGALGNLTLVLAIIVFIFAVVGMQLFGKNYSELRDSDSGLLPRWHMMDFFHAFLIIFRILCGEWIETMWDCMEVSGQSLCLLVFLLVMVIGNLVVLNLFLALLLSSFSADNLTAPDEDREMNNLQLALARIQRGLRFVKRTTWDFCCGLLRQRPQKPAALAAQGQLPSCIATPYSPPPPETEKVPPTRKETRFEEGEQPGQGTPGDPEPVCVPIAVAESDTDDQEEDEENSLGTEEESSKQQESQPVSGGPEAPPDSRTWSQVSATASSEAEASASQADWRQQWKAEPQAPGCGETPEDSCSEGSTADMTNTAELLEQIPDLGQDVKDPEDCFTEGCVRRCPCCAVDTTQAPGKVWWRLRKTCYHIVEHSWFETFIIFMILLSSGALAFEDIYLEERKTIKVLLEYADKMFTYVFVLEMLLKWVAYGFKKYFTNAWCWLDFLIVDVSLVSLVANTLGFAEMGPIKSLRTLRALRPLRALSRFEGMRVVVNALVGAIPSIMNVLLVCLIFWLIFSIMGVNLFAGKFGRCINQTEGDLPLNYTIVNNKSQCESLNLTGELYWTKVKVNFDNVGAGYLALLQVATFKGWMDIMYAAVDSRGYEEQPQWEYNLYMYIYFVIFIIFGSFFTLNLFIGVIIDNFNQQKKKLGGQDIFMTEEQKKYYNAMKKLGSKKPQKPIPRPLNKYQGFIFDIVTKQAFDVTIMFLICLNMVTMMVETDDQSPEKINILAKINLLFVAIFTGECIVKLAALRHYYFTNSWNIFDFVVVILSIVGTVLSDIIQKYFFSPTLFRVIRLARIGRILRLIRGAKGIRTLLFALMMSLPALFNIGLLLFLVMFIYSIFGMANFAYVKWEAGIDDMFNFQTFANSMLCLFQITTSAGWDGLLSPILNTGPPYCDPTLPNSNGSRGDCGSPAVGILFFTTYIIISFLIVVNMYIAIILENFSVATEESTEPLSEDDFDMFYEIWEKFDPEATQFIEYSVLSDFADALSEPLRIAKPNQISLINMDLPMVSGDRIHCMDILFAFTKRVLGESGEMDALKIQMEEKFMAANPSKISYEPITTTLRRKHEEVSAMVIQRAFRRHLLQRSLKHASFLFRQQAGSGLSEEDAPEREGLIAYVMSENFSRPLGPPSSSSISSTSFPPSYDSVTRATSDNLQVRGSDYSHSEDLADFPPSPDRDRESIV

With CO[C@H]1/C=C\C=C(/C)C(=O)NC2=CC(=O)C(NCCCCCC[P+](c3ccccc3)(c3ccccc3)c3ccccc3)=C(C[C@@H](C)C[C@H](OC)[C@H](O)[C@@H](C)/C=C(\C)[C@@H]1OC(N)=O)C2=O [Gamitrinib, 17-Demethoxy-17-((6-(triphenylphosphonio)hexyl)amino)geldanamycin] as the compound, how does the fraction unbound at 4 h, 2 μg/mL ([1]; read-out: average free fraction) read?
The fraction unbound at 4 h, 2 μg/mL was 0.007 ± 0.0007.

And the fraction unbound at 4 h, 2 μg/mL ([1]; read-out: bound to plasma proteins)?
The fraction unbound at 4 h, 2 μg/mL was less than 0.01.

What about the “bound to plasma proteins” value (plasma proteins) of the same compound?
Its value is 99.3±0.07%.

What about the “Pexact, B > A” value [2] of the same compound?
The value was 1.092 ×10⁻⁶ cm/s.

What about the Papp B→A at 90 min (in vitro; Caco-2) of the same compound?
The Papp B→A at 90 min was 1.09 ×10⁻⁶ cm/s.

And the efflux ratio at 90 min (in vitro; Caco-2, Papp Efflux Ratio (ER))?
The efflux ratio at 90 min was 5.77.

And the Papp A→B at 90 min (in vitro; Caco-2, Papp)?
Its Papp A→B at 90 min is 0.19 ×10⁻⁶ cm/s.

And the efflux ratio at 90 min (in vitro; Caco-2, Pexact Efflux Ratio)?
The efflux ratio at 90 min was 5.54.

What about the Papp A→B at 90 min (in vitro; Caco-2, Pexact) of the same compound?
Its Papp A→B at 90 min is 0.197 ×10⁻⁶ cm/s.

What about the inhibition at 10 µM (Nav1.5) of the same compound?
Its inhibition at 10 µM is 22.3 ± 5.3%.

And the “hERG IC50 relative to IC50 of inhibition of tumor growth in NCI 60-cell line screen” value (hERG [3]; hERG IC50 3.5 μM higher than tumor IC50)?
Its value is “up to 20 fold”.

And the inhibition at 0.5 µM (hERG [3]; human, HEK293 cells stably transfected with hERG, pH 7.4, 0.5 μM, transfected HEK293 cells, mean±SD)?
Its inhibition at 0.5 µM is -0.68 ± 3.95%.

And the inhibition at 1 µM (hERG [3]; human, HEK293 cells stably transfected with hERG, pH 7.4, 1 μM, transfected HEK293 cells, mean±SD)?
Its inhibition at 1 µM is 11.7 ± 6.51%.

And the inhibition at 5 µM (hERG [3]; human, HEK293 cells stably transfected with hERG, pH 7.4, 5 μM, transfected HEK293 cells, mean±SD)?
Its inhibition at 5 µM is 66 ± 6.78%.

And the inhibition at 10 µM (hERG [3]; human, HEK293 cells stably transfected with hERG, pH 7.4, 10 μM, transfected HEK293 cells, mean±SD)?
The inhibition at 10 µM was 81.8 ± 1.88%.

What about the IC50 (hERG [3]; patch-clamp, transfected HEK293 cells, read-out: IC50 of hERG inhibition) of the same compound?
Its IC50 is 3.5 µM.

What about the inhibition at 10 µM (Human HCN4) of the same compound?
The inhibition at 10 µM was -0.2 ± 3.7%.

And the “stable (time of storage)” value ([4]; injectable suspension at −20° C.)?
Its value is no less than 24 weeks.

And the particle size ([4]; injectable suspension produced by microfluidization)?
The particle size was less than 200 nm.

And the “therapeutically effective dose in mice” value (tumor)?
The value was 10 mg/kg.

And the IC50 (CYP2A6)?
The IC50 was 24 µM.

What about the inhibition at 10 µM (hERG [5]) of the same compound?
The inhibition at 10 µM was 37.9 ± 1.7%.

And the IC50 [6]?
Its IC50 is 0.35 to 29 µM.
